Reference: patent publication US11547697B2, “Heterocyclic compounds and uses thereof” (MILLENNIUM PHARMACEUTICALS, INC., priority 2009, dated 2023)
Read-outs that look alike come from different tables or passages of the source.

Legend:
p110β/p85α = p110β/p85α (Homo sapiens (Human), UniProt P42338); test: PI 3-Kinase (human) HTRF assay, p110β/p85α; format: biochemical
p110α/p85α = p110α/p85α (Homo sapiens (Human), UniProt P42336); test: PI 3-Kinase (human) HTRF assay, p110α/p85α; format: biochemical
recombinant mTOR = recombinant mTOR (Homo sapiens (Human), UniProt P42345); test: mTOR inhibition assay (radiometric or LanthaScreen TR-FRET); format: biochemical
Protocol: The compounds described herein can be tested against recombinant mTOR (Invitrogen) in an assay containing 50 mM HEPES, pH 7.5, 1 mM EGTA, 10 mM MgCl2, 2.5 mM, 0.01% Tween, 10 pM ATP (2.5 μCi of μ-32P-ATP), and 3 μg/mL BSA. R^at recombinant PHAS-1/4EBP1 (Calbiochem; 2 mg/mL) is used as a substrate. Reactions are terminated by spotting onto nitrocellulose, which is washed with 1M NaCl/1% phosphoric acid (approximately 6 times, 5-10 minutes each). Sheets are dried and the transferred radioactivity quantitated by phosphorimaging.
For instance, one can use Invitrogen's LanthaScreen™ Kinase assay to test the inhibitors of mTOR disclosed herein. This assay is a time resolved FRET platform that measures the phosphorylation of GFP labeled 4EBP1 by mTOR kinase. The kinase reaction is performed in a white 384 well microtitre plate. The total reaction volume is 20 ul per well and the reaction buffer composition is 50 mM HEPES pH7.5, 0.01% Polysorbate 20, 1 mM EGTA, 10 mM MnCl2, and 2 mM DTT. In the first step, each well receives 2 ul of test compound in 20% dimethylsulphoxide resulting in a 2% DMSO final concentration. Next, 8 ul of mTOR diluted in reaction buffer is added per well for a 60 ng/ml final concentration. To start the reaction, 10 ul of an ATP/GFP-4EBP1 mixture (diluted in reaction buffer) is added per well for a final concentration of 10 μM ATP and 0.5 μM GFP-4EBP1. The plate is sealed and incubated for 1 hour at room temperature. […] The plate is sealed, incubated for 1 hour at room temperature, and then read on a plate reader set up for LanthaScreen™ TR-FRET. Data is analyzed and IC50s are generated using GraphPad Prism 5.

p110δ/p85α = p110δ/p85α (Homo sapiens (Human), UniProt O00329); test: PI 3-Kinase (human) HTRF assay, p110δ/p85α; format: biochemical
p110γ = p110γ (Homo sapiens (Human), UniProt P48736); test: PI 3-Kinase (human) HTRF assay, p110γ; format: biochemical
[1] = system: tumor cells with a PI3Kα mutation (e.g., MDA-MB-361 and T47D); test: Proliferation of tumor cells with PI3Kα mutation; format: cell-based; conditions: Homo sapiens, T47D cells
[2] = in vitro, read-out: PI3K β IC50
[3] = in vitro, read-out: PI3K α IC50
[4] = in vitro, read-out: PI3K δ IC50
[5] = in vitro, read-out: PI3K γ IC50

Chain of p110γ (P48736 whole entry): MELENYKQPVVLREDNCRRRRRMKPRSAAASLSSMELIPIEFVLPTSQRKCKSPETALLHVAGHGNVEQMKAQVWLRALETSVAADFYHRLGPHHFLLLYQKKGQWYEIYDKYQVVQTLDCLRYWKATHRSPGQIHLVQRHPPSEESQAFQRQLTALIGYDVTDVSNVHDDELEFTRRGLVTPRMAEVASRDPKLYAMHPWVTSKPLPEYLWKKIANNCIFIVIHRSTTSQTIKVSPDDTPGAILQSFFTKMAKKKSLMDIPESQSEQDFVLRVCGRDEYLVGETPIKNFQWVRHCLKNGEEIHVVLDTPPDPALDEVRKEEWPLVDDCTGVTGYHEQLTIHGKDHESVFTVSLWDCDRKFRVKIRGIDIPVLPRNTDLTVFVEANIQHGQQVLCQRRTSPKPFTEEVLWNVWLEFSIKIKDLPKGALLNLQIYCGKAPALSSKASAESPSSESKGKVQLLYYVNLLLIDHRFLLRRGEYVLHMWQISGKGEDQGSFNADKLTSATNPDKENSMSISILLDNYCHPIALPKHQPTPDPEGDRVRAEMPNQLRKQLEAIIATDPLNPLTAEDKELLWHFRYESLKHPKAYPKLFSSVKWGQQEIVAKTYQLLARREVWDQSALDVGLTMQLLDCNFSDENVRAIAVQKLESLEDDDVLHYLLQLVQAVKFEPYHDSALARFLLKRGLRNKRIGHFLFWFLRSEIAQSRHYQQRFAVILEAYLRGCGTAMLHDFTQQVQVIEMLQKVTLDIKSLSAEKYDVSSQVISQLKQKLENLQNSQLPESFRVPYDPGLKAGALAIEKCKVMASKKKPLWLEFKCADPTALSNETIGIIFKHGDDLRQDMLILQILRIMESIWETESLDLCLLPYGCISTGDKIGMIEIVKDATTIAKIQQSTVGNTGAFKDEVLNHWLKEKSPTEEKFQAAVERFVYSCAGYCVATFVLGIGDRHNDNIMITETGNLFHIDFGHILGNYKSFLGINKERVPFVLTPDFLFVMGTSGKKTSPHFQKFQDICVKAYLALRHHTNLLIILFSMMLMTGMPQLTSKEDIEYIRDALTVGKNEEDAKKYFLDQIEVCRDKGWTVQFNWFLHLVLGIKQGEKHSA
Chain of p110δ/p85α (O00329 whole entry): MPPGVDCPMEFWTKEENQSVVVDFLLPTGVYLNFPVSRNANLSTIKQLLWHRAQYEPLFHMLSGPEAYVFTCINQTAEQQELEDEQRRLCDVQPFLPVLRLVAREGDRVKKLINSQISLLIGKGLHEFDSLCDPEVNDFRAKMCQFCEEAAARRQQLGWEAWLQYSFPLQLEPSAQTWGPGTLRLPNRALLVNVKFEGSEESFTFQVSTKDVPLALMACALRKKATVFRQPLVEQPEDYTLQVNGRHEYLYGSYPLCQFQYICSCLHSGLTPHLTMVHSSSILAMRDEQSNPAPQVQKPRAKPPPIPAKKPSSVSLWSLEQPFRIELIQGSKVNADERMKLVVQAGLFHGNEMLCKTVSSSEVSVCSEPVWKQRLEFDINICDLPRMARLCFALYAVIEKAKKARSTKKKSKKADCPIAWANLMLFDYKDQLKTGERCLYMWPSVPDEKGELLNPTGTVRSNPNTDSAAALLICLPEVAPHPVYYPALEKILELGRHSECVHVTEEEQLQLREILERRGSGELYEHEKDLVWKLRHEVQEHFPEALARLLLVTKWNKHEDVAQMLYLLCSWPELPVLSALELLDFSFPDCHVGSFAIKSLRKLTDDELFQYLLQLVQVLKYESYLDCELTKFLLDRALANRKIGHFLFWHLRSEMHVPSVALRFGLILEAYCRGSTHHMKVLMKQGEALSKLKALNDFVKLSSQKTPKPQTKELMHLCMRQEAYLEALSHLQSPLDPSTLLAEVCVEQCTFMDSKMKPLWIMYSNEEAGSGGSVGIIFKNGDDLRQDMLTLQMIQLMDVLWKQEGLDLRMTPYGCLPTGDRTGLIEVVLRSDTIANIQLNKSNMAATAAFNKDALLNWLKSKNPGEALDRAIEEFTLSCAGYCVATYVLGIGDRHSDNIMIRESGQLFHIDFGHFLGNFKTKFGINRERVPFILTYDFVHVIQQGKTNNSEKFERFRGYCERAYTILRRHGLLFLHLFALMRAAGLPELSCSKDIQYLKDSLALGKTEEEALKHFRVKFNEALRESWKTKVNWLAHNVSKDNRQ
Chain of p110δ/p85α (P27986 whole entry partner): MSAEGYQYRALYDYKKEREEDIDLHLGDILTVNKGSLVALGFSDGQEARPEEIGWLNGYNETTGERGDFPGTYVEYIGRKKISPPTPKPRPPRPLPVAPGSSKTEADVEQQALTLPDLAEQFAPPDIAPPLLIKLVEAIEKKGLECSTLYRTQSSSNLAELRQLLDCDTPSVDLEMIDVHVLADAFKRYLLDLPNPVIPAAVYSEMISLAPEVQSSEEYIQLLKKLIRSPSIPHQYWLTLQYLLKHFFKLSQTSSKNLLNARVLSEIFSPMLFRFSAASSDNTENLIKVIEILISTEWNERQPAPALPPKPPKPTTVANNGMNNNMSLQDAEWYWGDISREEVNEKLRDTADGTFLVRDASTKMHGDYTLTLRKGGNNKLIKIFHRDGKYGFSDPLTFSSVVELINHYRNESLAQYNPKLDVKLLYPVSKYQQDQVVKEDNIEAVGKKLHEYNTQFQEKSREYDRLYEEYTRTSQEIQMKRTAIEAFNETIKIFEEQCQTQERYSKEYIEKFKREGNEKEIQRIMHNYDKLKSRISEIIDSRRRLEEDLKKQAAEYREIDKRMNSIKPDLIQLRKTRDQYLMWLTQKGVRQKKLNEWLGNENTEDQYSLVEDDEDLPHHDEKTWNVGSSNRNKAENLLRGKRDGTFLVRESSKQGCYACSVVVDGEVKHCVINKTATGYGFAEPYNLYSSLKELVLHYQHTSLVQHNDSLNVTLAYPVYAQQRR
Chain of p110α/p85α (P42336 whole entry): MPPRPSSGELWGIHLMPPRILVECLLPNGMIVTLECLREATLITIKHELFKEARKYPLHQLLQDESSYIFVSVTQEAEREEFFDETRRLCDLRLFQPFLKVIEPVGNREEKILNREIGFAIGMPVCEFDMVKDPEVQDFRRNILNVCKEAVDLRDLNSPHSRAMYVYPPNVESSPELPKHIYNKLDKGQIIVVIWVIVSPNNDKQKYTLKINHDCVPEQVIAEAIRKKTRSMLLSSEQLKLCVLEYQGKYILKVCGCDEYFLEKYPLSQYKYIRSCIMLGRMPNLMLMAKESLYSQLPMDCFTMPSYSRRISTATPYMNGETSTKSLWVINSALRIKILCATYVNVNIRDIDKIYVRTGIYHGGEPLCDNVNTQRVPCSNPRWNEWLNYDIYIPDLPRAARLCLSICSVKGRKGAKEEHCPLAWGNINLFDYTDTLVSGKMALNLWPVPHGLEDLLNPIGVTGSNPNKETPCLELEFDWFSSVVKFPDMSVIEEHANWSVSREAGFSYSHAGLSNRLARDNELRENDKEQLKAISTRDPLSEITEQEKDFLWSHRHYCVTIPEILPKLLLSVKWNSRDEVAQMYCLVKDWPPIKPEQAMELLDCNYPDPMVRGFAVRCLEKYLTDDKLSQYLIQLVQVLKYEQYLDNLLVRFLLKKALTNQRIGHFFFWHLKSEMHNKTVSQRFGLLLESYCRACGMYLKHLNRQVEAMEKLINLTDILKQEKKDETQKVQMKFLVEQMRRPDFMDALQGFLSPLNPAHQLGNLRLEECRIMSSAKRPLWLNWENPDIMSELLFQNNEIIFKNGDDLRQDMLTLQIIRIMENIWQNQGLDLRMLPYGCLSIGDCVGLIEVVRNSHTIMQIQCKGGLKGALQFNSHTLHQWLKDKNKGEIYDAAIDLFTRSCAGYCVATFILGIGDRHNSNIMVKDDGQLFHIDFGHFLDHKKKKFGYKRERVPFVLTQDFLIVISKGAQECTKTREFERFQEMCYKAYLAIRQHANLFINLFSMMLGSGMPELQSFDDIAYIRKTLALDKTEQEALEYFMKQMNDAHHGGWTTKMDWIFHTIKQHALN
Chain of p110α/p85α (P27986 whole entry partner): as the sequence (P27986 whole entry partner) above
Chain of p110β/p85α (P42338 whole entry): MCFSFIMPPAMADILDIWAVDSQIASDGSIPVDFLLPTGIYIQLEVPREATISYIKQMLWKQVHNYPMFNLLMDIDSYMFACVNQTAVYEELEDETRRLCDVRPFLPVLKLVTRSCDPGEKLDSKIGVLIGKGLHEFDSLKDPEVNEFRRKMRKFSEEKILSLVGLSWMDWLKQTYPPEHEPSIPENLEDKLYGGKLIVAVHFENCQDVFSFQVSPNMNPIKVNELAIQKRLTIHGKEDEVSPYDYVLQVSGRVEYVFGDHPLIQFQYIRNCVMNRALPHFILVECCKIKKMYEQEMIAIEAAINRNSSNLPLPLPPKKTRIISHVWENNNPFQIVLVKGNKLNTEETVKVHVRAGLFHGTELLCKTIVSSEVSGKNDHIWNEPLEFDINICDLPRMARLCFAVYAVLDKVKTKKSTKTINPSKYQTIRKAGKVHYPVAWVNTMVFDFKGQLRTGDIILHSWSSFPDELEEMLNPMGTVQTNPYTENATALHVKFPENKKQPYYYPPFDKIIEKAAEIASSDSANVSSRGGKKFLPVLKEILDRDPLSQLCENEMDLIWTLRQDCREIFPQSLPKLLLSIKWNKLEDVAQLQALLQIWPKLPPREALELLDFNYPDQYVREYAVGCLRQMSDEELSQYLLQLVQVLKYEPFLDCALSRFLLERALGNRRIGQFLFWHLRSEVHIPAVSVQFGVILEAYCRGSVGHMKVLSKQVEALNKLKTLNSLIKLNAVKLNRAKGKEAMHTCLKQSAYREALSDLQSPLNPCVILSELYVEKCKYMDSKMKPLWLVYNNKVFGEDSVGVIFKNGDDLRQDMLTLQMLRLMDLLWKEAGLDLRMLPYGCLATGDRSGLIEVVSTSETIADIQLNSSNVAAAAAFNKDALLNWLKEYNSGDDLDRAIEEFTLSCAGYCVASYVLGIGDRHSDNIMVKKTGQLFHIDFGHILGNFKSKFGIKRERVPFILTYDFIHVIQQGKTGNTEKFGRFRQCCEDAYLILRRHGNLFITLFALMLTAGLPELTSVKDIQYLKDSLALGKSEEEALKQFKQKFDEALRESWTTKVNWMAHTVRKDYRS
Chain of p110β/p85α (P27986 whole entry partner): as the sequence (P27986 whole entry partner) above

Structure (SMILES) | IC50 (p110β/p85α; [2]) [nM] | IC50 (p110α/p85α; [3]) [nM] | IC50 (recombinant mTOR; in vitro, read-out: MTORC IC50) [nM] | IC50 (p110δ/p85α; [4]) [nM] | IC50 (p110α/p85α; read-out: PI3K α IC50) [nM] | IC50 (recombinant mTOR; read-out: MTORC IC50) [nM] | IC50 (p110γ; [5]) [nM] | also measured
COC(=O)N1CCC(n2ncc3c(N4CCOCC4)nc(-c4ccc5oc(N)nc5c4)nc32)CC1 [compound 330] | < 10000 | < 1000 | < 1000 |  |  |  |  | 
CN1CCN([C@@H]2CCN(c3cnc4ccc(-c5ccc6oc(N)nc6c5)cc4n3)C2)CC1 [compound 379] | < 1000 | < 100 | < 10000 | < 10000 |  |  |  | 
Nc1nc2cc(-c3ccn4ncc(-c5ccncc5)c4n3)ccc2o1 [compound 62] |  |  |  |  | < 100 | < 100 |  | IC50 (p110δ/p85α; read-out: PI3K δ IC50): < 100 nM; IC50 (p110β/p85α; read-out: PI3K β IC50): < 100 nM; IC50 (p110γ; read-out: PI3K γ IC50): < 100 nM
Nc1nc2cc(-c3ccc4nc(N)sc4c3)ccc2o1 [compound 232] | < 1000 | < 1000 | < 10000 | < 10000 |  |  | < 100 | 
Nc1nc2cc(-c3nc(N4CCOCC4)c4cnn(C5CCNCC5)c4n3)ccc2o1 [compound 348] | < 100 | < 1000 | < 1000 | < 10000 |  |  | < 1000 | 
Nc1nc2cc(-c3ccc4ncc(=O)[nH]c4c3)ccc2o1 [compound 72] |  |  |  |  | < 100 | < 1000 |  | IC50 (p110β/p85α; read-out: PI3K β IC50): < 1000 nM; IC50 (p110γ; read-out: PI3K γ IC50): < 100 nM
Nc1nc2ccc(-c3ccc4nccc(-c5ccncc5)c4c3)cc2s1 [compound 3] |  |  |  |  | < 100 | < 1000 |  | IC50 (p110δ/p85α; read-out: PI3K δ IC50): < 1000 nM; IC50 (p110γ; read-out: PI3K γ IC50): < 1000 nM
CS(=O)(=O)N1CCN(C2CCN(c3cnc4ccc(-c5ccc6oc(N)nc6c5)cc4n3)CC2)CC1 [compound 377] | < 10000 | < 100 | < 10000 | < 10000 |  |  | < 1000 | 
CC(=O)Nc1ncc(-c2ccc3oc(N)nc3c2)s1 [compound 235] |  | < 10000 | < 10000 | < 10000 |  |  | < 10000 | 
CC1(C)CN(C2CN(c3cnc4ccc(-c5ccc6oc(N)nc6c5)cc4n3)C2)CCN1 [compound 388] | < 1000 | < 100 | < 100 | < 1000 |  |  | < 1000 | 
Nc1nc2cc(-c3ccc4oc(N)nc4c3)ccc2o1 [compound 240] |  | < 1000 | < 10000 | < 10000 |  |  | < 100 | 
Nc1nc2cc(-c3ccc4nc(N)oc4c3)ccc2o1 [compound 241] |  | < 1000 | < 10000 | < 1000 |  |  | < 100 | 
CN1CCC(n2cnc3ccc(-c4ccc5oc(N)nc5c4)cc3c2=O)CC1 [compound 36] |  |  |  |  | < 100 | < 10000 |  | IC50 (p110δ/p85α; read-out: PI3K δ IC50): < 10000 nM; IC50 ([1]; read-out: T47D proliferation): < 10000 nM
Nc1nc2cc(-c3ccc4ncc(N5CC(n6cccn6)C5)nc4c3)ccc2o1 [compound 318] | < 10000 | < 100 | < 1000 |  |  |  | < 1000 | 
CN1CCN(C(=O)c2cnc3ccc(-c4ccc5oc(N)nc5c4)cn23)CC1 [compound 44] |  |  |  |  | < 100 | < 10000 |  | IC50 (p110δ/p85α; read-out: PI3K δ IC50): < 10000 nM; IC50 (p110γ; read-out: PI3K γ IC50): < 10000 nM
O=C(c1cnc2ccc(-c3cnc(Cl)c(NS(=O)(=O)c4ccc(F)cc4F)c3)cn12)N1CCOCC1 [compound 419] |  |  |  |  |  |  |  | IC50 (p110δ/p85α; read-out: PI3K δ In Vitro IC50): < 100 nM; IC50 (p110β/p85α; read-out: PI3K β In Vitro IC50): < 100 nM; IC50 (p110γ; read-out: PI3K γ In Vitro IC50): < 100 nM; IC50 (p110α/p85α; read-out: PI3K α In Vitro IC50): < 100 nM; IC50 (recombinant mTOR; read-out: MTORC In Vitro IC50): < 1000 nM
CS(=O)(=O)Nc1cc(-c2ccc3ncc(C(=O)N4CCOCC4)n3c2)cnc1Cl [compound 418] |  |  |  |  |  |  |  | IC50 (p110δ/p85α; read-out: PI3K δ In Vitro IC50): < 100 nM; IC50 (p110β/p85α; read-out: PI3K β In Vitro IC50): < 100 nM; IC50 (p110γ; read-out: PI3K γ In Vitro IC50): < 100 nM; IC50 (p110α/p85α; read-out: PI3K α In Vitro IC50): < 100 nM; IC50 (recombinant mTOR; read-out: MTORC In Vitro IC50): < 100 nM
Nc1nc2cc(-c3ccc4ncc(N5CC[C@H](O)C5)nc4c3)ccc2o1 [compound 262] | < 1000 | < 100 | < 10000 |  |  |  | < 1000 | IC50 ([1]; read-out: T47D proliferation IC50): < 10000 nM
Nc1nc2cccc(-c3ccc4nccc(-c5ccncc5)c4c3)c2o1 [compound 15] |  |  |  |  | < 100 | < 100 |  | IC50 (p110δ/p85α; read-out: PI3K δ IC50): < 1000 nM; IC50 (p110β/p85α; read-out: PI3K β IC50): < 100 nM; IC50 (p110γ; read-out: PI3K γ IC50): < 1000 nM
N#Cc1cnc2ccc(-c3ccc4oc(N)nc4c3)cc2c1Cl [compound 77] |  |  |  |  |  | < 1000 |  | 
Cn1cc(-c2cnc3ccc(-c4ccc5oc(N)nc5c4)cn23)cn1 [compound 41] |  |  |  |  | < 100 | < 10000 |  | IC50 (p110δ/p85α; read-out: PI3K δ IC50): < 1000 nM; IC50 (p110γ; read-out: PI3K γ IC50): < 1000 nM; IC50 ([1]; read-out: T47D proliferation): < 10000 nM
Nc1nc2cc(-c3ccc4ncc(N5CCNC(C(F)(F)F)C5)nc4c3)ccc2o1 (centres unmarked) [compound 384] | < 1000 | < 100 | < 1000 | < 10000 |  |  | < 1000 | 
